# Measurements: a melting point compilation (Tetko et al.; mined from patent text by program, amines drawn as free bases though some values may be those of a salt)
row,melting point [°C],Structure (SMILES)
1,197,CC(C)(O)C1CC(c2ccc(-c3ccc(N4C[C@H](Cn5ccnn5)OC4=O)cc3F)cn2)=NO1 (stereo not given in full)
2,107 to 109,O=C1c2ccccc2S(=O)(=O)N1CCCCOc1ccc(O)cc1
3,160 to 162,CCCNC(=O)C(Cc1ccc2c(c1)c(Cc1ccc(C(=O)O)cc1OC)cn2CCC)C(C)C (stereo not given)
4,87 to 88,OCc1cc(OCc2ccccc2)nn1-c1ccccc1
5,108 to 109,O=CNCc1ccc(CN2CCN(c3ccccc3)CC2)cc1
6,82 to 84,Cc1ccc(C)n1C(C)c1ncccc1F (stereo not given)
7,63 to 64,CC(C)(C#N)c1ccc(OCc2ccccc2)cc1
8,115 to 116,FC(F)(F)Oc1ccc(Cn2cnc3c(Cl)ncnc32)cc1
9,196 to 197,CC(C)(C)OC(=O)/C=C/c1ccnc(-c2nc(=O)c3ccccc3s2)c1
10,150,COc1ccc(C(=O)Nc2ccc3cccnc3n2)cc1
11,80 to 83,Clc1ccc(-n2c(Cl)nc3ccccc32)c(Cl)c1
12,280 to 281,O=C(Nc1ccc(-n2nc(C3CC3)cc2C2CC2)c(F)c1)c1c(Cl)cncc1Cl
13,275,COc1ccc2c3c(nn(CCO)c13)-c1ccccc1N2
14,183 to 185,CCOc1nc2cccc(C(=O)O)c2n1Cc1ccc(-c2ccccc2-c2nnn[nH]2)cc1
15,107 to 108,COC(=O)C1Oc2ccccc2Cc2cccc(Cl)c2O1 (stereo not given)
16,121 to 122,CCCc1nn(-c2ccc(C(F)(F)F)cn2)cc1CCCCOc1ccc(CC(=O)O)cc1
17,172 to 173,CC(O)CNCc1cc2c(=O)c(C(=O)NCc3ccc(Cl)cc3)cn(C)c2o1 (stereo not given)
18,187 to 188,COc1ccc2c(N)c(C(=O)Nc3ccc(Cl)cc3Cl)oc2c1
19,74 to 75,COc1ccc2[nH]c(C)cc2c1OCc1ccccc1
20,188 to 191,CC(C)N(CCn1cc(C(=O)NCc2ccc(Cl)cc2)c(=O)c2cc(C#CCO)ccc21)C(C)C

row,melting point [°C],Structure (SMILES)
1,198 to 200,CCOC(=O)COc1ccc(NC(=O)NC(=O)c2ccc(C(=N)N)cc2)cc1
2,178,CCc1nnc(-c2ccc(OC)cc2)n1-c1ccc([N+](=O)[O-])cc1
3,97 to 98,Fc1ccc(-c2cncc(CN3CCN(c4ncccn4)CC3)c2)cc1
4,196 to 197,Cc1nc(Cl)c(-c2ccc(Cl)cc2)c(NS(=O)(=O)c2ccc(Cl)cc2)n1
5,168 to 171,Cc1cc(OCC(=O)O)c(C(C)C)cc1SCc1sc(-c2ccc(C(F)(F)F)cc2)nc1C
6,162 to 165,COc1ccc(C(=O)Oc2ccc(O)cc2)cc1
7,119 to 120,COc1ccc(-n2c(Cl)ccc2-c2ccc(S(N)(=O)=O)cc2)cc1
8,39 to 42,CCC1c2cccn2-c2ccc(F)cc2N1C(=O)c1ccc(OC)cc1 (stereo not given)
9,110 to 118,[N-]=[N+]=NCCOc1ccc(/C(=C(\c2ccccc2)C(F)(F)F)c2ccccc2)cc1
10,73.8 to 77.9,CCc1nc2c(OCc3ccc(OC)cc3)cccc2[nH]1
11,265 to 267,Cc1cc(N2CC=C(C(N)=O)CC2)c2c(C)c(C)n(-c3ccc(Cl)cc3Cl)c2n1
12,212 to 216,c1cn(CCc2ccc3c(c2)-c2[nH]nc(-c4ccsc4)c2C3)cn1
13,280,NS(=O)(=O)c1nnc(NC(=O)c2cnn3c(C(F)(F)F)cc(-c4ccc(C(F)(F)F)cc4)nc23)s1
14,108 to 109,CC1=C(C(=O)OCCOc2ccccc2)C(c2ccccc2C(F)(F)F)c2c(ccnc2OCC(C)C)N1 (stereo not given)
15,110 to 112,OC(Cn1cncn1)(c1ccc(Cl)cc1)C1(C2CC2)CC1 (stereo not given)
16,113 to 115,Cc1ncoc1-c1nc(-c2c(F)cccc2F)nn1C
17,204,CCc1c(Cl)c2ccccn2c1C(=O)c1ccc(O)c(Br)c1
18,226,Cc1n[nH]c(=O)n1-c1ccc([N+](=O)[O-])cc1
19,80.5 to 89.9,CNN1c2c(cc(Oc3ccc(F)cc3F)c(=O)n2NC)C=NC1S(=O)Cc1ccccc1 (stereo not given)
20,54 to 55,CC(=S)c1ccc(Cc2ccc(C(C)=S)cc2)cc1

# Second part, the compound before the results:
row,Structure (SMILES),melting point [°C]
1,CCOC(=O)C(CC#N)(C(=O)OCC)c1ccc([N+](=O)[O-])cn1,66 to 68
2,CCCC(NOCC)=C1C(=O)CC(c2cc3ccccc3[nH]c2=O)CC1=O (stereo not given),155 to 157
3,CSc1ccc(Cl)c(C(=O)NCC23CC4CC(CC(C4)C2)C3)c1,126 to 127
4,O=C1c2cc(O)ccc2OCN1CCO,148 to 150
5,CCOC(=O)C=Cc1ccc(CCNS(=O)(=O)CCc2ccccc2)cc1,98 to 99
6,CCCc1c(C(=O)OCC)sc(NC(=O)C(=O)OCC)c1[N+](=O)[O-],73 to 75
7,CC(=O)NC[C@@H]1CCCc2cc(Sc3ccccc3)cc(F)c21,94.6 to 95.9
8,O=C(NC1CCN(CCc2cccc(F)c2)C1)C12CC3CC(CC(C3)C1)C2 (stereo not given),87 to 89
9,O=C(c1ccccc1)N1CCC2CC(O)(c3ccc(F)cc3)CCC2C1 (stereo not given),84 to 85
10,CSC(=S)N1CCN(Cc2cc(OC(C)=O)c(OC(C)=O)c(OC(C)=O)c2)CC1,141 to 143
11,CCOC(=O)c1cn(C2CC2)c2c(Br)c(F)c(F)cc2c1=O,164 to 168
12,CC(C)(C)OC(=O)NCCCn1c2c(c3ccc(NCC(=O)O)cc3c1=O)C(=O)c1ccccc1-2,190 to 192
13,COc1cc([N+](=O)[O-])c(CCC(=O)O)c([N+](=O)[O-])c1O,195
14,COc1cc2c(Nc3ccc4cn[nH]c4c3)c(C#N)cnc2cc1OCCN(C)C,218 to 219
15,CCOC(=O)CCc1cc(-c2cc3ccccc3c(=O)o2)ccc1OC,105 to 106
16,COc1ccc(-c2sc3cc(OC)ccc3c2C(=O)c2c(OC)cccc2OC)cc1,146 to 152
17,COC(=O)NC1=NCC(c2ccc(I)cc2)CN1 (stereo not given),209 to 210
18,CC(=O)[C@H]1CC[C@H](c2ccc(Cl)cc2)CC1,74.6
19,OC[C@@H](O)[C@@H](CO)OCc1ccccc1Cl,74 to 76
20,N#Cc1cc(F)cc(-c2cc(N)c3c(c2)C2(CCCCC2)C(=O)N3)c1,241 to 243

row,Structure (SMILES),melting point [°C]
1,CN1C(=O)CC(c2ccccc2)C1C(O)C=Cc1ccc(F)cc1 (stereo not given),189 to 191
2,CS(=O)(=O)c1ccc(-c2ccccc2-c2ccc(Cl)cc2)cc1,180 to 181
3,O=[N+]([O-])c1cnn2c1-c1ccccc1NC2C1CCCCC1 (stereo not given),150 to 152
4,CCCCOC1OC(CO)C(O)(N(CC)C(=O)N(CCCl)N=O)C(O)C1O (stereo not given),75 to 77
5,O=C1c2sc3ccccc3c2C(=O)c2sc3ccccc3c21,315
6,C[C@@H]1c2sccc2CN(C)[C@H]1CCNC(=O)c1ccc(NS(C)(=O)=O)cc1 (relative stereo),67 to 74
7,Cc1nnc(S)n1-c1ccccc1F,119 to 120
8,CC(C)c1ccc(NC(=N)c2cccc(NC(=O)C=Cc3ccccc3Cl)c2)cc1,112 to 118
9,O=C(NC1CCN(C(=O)c2ccccc2)CC1)c1ccccc1Oc1ccc(Cl)cc1Cl,63 to 66
10,CC(C)(C)OC(=O)N1CC=C(c2c[nH]c3ccc([N+](=O)[O-])cc23)CC1,210 to 212
11,O=c1cccnn1-c1ccc2nc([C@H]3C[C@H](N4CCCCC4)C3)sc2c1,127 to 128
12,COc1cc(C=CC(CSc2ccccc2)=NO)ccc1O,90 to 100
13,O=C(Nc1ccccc1C(c1ccc(O)cc1)c1ccc(O)cc1)c1ccc([N+](=O)[O-])cc1,258 to 259
14,COc1cc(S(C)(=O)=O)ccc1-c1nc(C)c(-c2cccnc2)[nH]1,115 to 118
15,CN1c2ccccc2-c2nc3ccccc3c3cccc1c23,212 to 214
16,Cc1cnc2c(c1)COP(=S)(c1ccccc1)O2 (stereo not given),97 to 98
17,COc1nc(C)c(C)cc1NC(=S)N1CCN(c2cc(F)cc(F)c2)CC1,60 to 62
18,COc1ccc(C(C)=O)cc1C=CC(=O)O,203
19,Cc1cc(-c2ccc(F)cc2)n(-c2ccc(S(N)(=O)=O)cc2)c1,168 to 170
20,O=C(O)[C@@H]1CCCN1C(=O)C1CCC1S (stereo not given in full),145 to 146

row,Structure (SMILES),melting point [°C]
1,C#CC(Cc1ccc(OC)c(OC2CCCC2)c1)C(=O)O (stereo not given),109 to 110
2,O=C1N=C(NN2CCOCC2)SC1=Cc1cccc(-c2cc(F)c(O)c(C34CC5CC(CC(C5)C3)C4)c2)c1,304 to 309
3,CC(C)OC(=O)c1nc(Cl)c(Cl)[nH]1,168
4,CCCCC(N)S(=O)(=O)O (stereo not given),142
5,CN1CCN(c2ccc3[nH]c(=O)c(-c4csc(-c5ccncc5)n4)c(N)c3c2)CC1,> 220
6,CCOC(=O)N1C(=NC#N)NC(C)=C(C(=O)OC)C1c1cccc(Cl)c1Cl (stereo not given),176 to 178
7,O=C1C=C(NC(=O)C(=O)c2cn(Cc3cccc(Cl)c3)c3ccccc23)CO1,268 to 270
8,O=C(CN1C(=O)C2(COc3cc4c(cc32)CCO4)c2cc(Cl)ccc21)Nc1ccccc1F (stereo not given),229 to 230
9,Cc1cn(C2CCCCC2)c(=O)[nH]c1=S,177 to 178
10,OCC1OC(SCC=Cc2ccccc2)C(O)C(O)C1O (stereo not given),145 to 146
11,O=C(CCC1CCN(Cc2cccc(F)c2)CC1)c1cc2c3c(c1)CCN3C(=O)CC2,111 to 112
12,Cc1ccc2c(c1)CC(=S)N2C,143 to 145
13,CCCOc1ccc(S(=O)(=O)N2CCNCC2)cc1-c1nc2c(CCC)nn(C)c2c(=O)[nH]1,185 to 186
14,CCOC(=O)CCCNc1ccc(OCC(C)(C)C)c(C#N)c1,88
15,Cc1nc(N2CCN(CC3CC3)C2=O)sc1C(=O)NCc1ncccc1F,142 to 144
16,CCOCc1nc2c(N)nc3ccc(O)cc3c2n1CCCCNC(=O)Nc1ccccc1,218 to 221
17,CC(C)(C)OC(=O)N1C[C@@H]2CC1CN2c1cncc(Br)c1,149
18,COCNC(=O)NC1CCC(=O)c2sccc21 (stereo not given),155 to 158
19,O=c1oc(-c2ccc(S(=O)(=O)c3ccccc3)cc2)cc(O)c1SCCc1ccccc1,194 to 195
20,Nc1nc2c(ncn2[C@@H]2CO[C@H](CO)C2)c(=O)[nH]1,261 to 263
